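Method: 48-hour compound exposure of cells in 96-well plates, five concentrations, linear interpolation of endpoints. Abbreviation: GI50, concentration required for 50% inhibition of growth.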 Activity calls are given as the source filed them. Rule as the data show it: active = GI50 up to about 1.1 µM and inactive = higher.
What was measured:
Experiment in all cases: DTP human tumour cell line panel, 48 h
HCT-15 = tested on: HCT-15
K562 = tested on: K562
SN12C = tested on: SN12C
UACC-257 = tested on: UACC-257
SW-620 = tested on: SW-620
SK-MEL-28 = tested on: SK-MEL-28
HOP-62 = tested on: HOP-62
RXF 393 = tested on: RXF 393
OVCAR-3 = tested on: OVCAR-3
UO-31 = tested on: UO-31
NCI-H522 = tested on: NCI-H522
OVCAR-5 = tested on: OVCAR-5
OVCAR-4 = tested on: OVCAR-4
NCI-H460 = tested on: NCI-H460
KM12 = tested on: KM12
HCT-116 = tested on: HCT-116
CAKI-1 = tested on: CAKI-1
OVCAR-8 = tested on: OVCAR-8
DU-145 = tested on: DU-145

CC1NC(=O)CC(c2ccccc2)N(N=O)C1c1ccccc1 (stereo unspecified)
GI50 (HCT-15): 39.5 µM | GI50 (K562): 28 µM (inactive) | GI50 (SN12C): 49.5 µM (inactive) | GI50 (UACC-257): 55.6 µM (inactive) | GI50 (SW-620): 20.6 µM (inactive) | GI50 (SK-MEL-28): 40.8 µM (inactive) | GI50 (HOP-62): 28.8 µM (inactive) | GI50 (RXF 393): 22.4 µM (inactive) | GI50 (OVCAR-3): 33.2 µM (inactive) | GI50 (UO-31): 50.8 µM (inactive) | GI50 (NCI-H522): 22.1 µM (inactive) | GI50 (OVCAR-5): > 100 µM (inactive) | GI50 (OVCAR-4): 19.9 µM (inactive) | GI50 (NCI-H460): 25.8 µM (inactive) | GI50 (KM12): 56.1 µM (inactive) | GI50 (HCT-116): 37.1 µM (inactive) | GI50 (CAKI-1): 37.1 µM (inactive) | GI50 (OVCAR-8): 34 µM (inactive)

O=C1NC(=O)C2C(=O)NC(=O)C1C2(c1ccccc1)c1ccc(Cl)cc1 (stereo unspecified)
GI50 (HCT-15): > 100 µM | GI50 (K562): > 100 µM (inactive) | GI50 (SN12C): > 100 µM (inactive) | GI50 (UACC-257): > 100 µM (inactive) | GI50 (SW-620): > 100 µM (inactive) | GI50 (SK-MEL-28): > 100 µM (inactive) | GI50 (HOP-62): > 100 µM (inactive) | GI50 (RXF 393): > 100 µM (inactive) | GI50 (OVCAR-3): > 100 µM (inactive) | GI50 (UO-31): > 100 µM (inactive) | GI50 (NCI-H522): > 100 µM (inactive) | GI50 (OVCAR-5): > 100 µM (inactive) | GI50 (OVCAR-4): > 100 µM (inactive) | GI50 (NCI-H460): > 100 µM (inactive) | GI50 (KM12): > 100 µM (inactive) | GI50 (CAKI-1): > 100 µM (inactive) | GI50 (OVCAR-8): > 100 µM (inactive)

CN(/N=C/c1cccc2cccnc12)c1ccccc1
GI50 (HCT-15): > 100 µM | GI50 (K562): > 100 µM (inactive) | GI50 (SN12C): > 100 µM (inactive) | GI50 (UACC-257): 52 µM (inactive) | GI50 (SW-620): > 100 µM (inactive) | GI50 (SK-MEL-28): > 100 µM (inactive) | GI50 (HOP-62): 76.2 µM (inactive) | GI50 (RXF 393): 41.9 µM (inactive) | GI50 (OVCAR-3): 13.2 µM (inactive) | GI50 (UO-31): > 100 µM (inactive) | GI50 (NCI-H522): > 100 µM (inactive) | GI50 (OVCAR-5): > 100 µM (inactive) | GI50 (OVCAR-4): 87.5 µM (inactive) | GI50 (NCI-H460): 79.6 µM (inactive) | GI50 (KM12): 78.3 µM (inactive) | GI50 (CAKI-1): 7.85 µM (inactive) | GI50 (OVCAR-8): > 100 µM (inactive)

CN(C)CCNC(=O)c1cccc2c(NCC(=O)O)c3ccccc3nc12
GI50 (HCT-15): 10.1 µM | GI50 (K562): 14 µM (inactive) | GI50 (SN12C): 9.98 µM (inactive) | GI50 (SW-620): 6.62 µM (inactive) | GI50 (SK-MEL-28): 20.6 µM (inactive) | GI50 (HOP-62): 11.6 µM (inactive) | GI50 (DU-145): 25.3 µM (inactive) | GI50 (OVCAR-3): 19.9 µM (inactive) | GI50 (UO-31): 7.4 µM (inactive) | GI50 (NCI-H522): 10.6 µM (inactive) | GI50 (OVCAR-5): 13.5 µM (inactive) | GI50 (OVCAR-4): 9.82 µM (inactive) | GI50 (KM12): 11.9 µM (inactive) | GI50 (HCT-116): 4.67 µM (inactive) | GI50 (OVCAR-8): 4.61 µM (inactive)

Cc1ccc(S(=O)(=O)NCC2CCCCC2=O)cc1 (stereo unspecified)
GI50 (HCT-15): > 100 µM | GI50 (K562): 66.1 µM (inactive) | GI50 (SN12C): > 100 µM (inactive) | GI50 (UACC-257): 16.4 µM (inactive) | GI50 (SW-620): > 100 µM (inactive) | GI50 (SK-MEL-28): > 100 µM (inactive) | GI50 (RXF 393): > 100 µM (inactive) | GI50 (OVCAR-3): > 100 µM (inactive) | GI50 (UO-31): 57.3 µM (inactive) | GI50 (NCI-H522): 56.8 µM (inactive) | GI50 (OVCAR-5): > 100 µM (inactive) | GI50 (OVCAR-4): 69.3 µM (inactive) | GI50 (NCI-H460): > 100 µM (inactive) | GI50 (KM12): > 100 µM (inactive) | GI50 (HCT-116): > 100 µM (inactive) | GI50 (CAKI-1): 15 µM (inactive) | GI50 (OVCAR-8): > 100 µM (inactive)

CC(=O)OCC1OC(n2cc([N+](=O)[O-])c(=O)[nH]c2=O)C(OC(C)=O)C(OC(C)=O)C1OC(C)=O (stereo unspecified)
GI50 (HCT-15): > 100 µM | GI50 (K562): > 100 µM (inactive) | GI50 (SN12C): > 100 µM (inactive) | GI50 (UACC-257): > 100 µM (inactive) | GI50 (SW-620): > 100 µM (inactive) | GI50 (SK-MEL-28): > 100 µM (inactive) | GI50 (HOP-62): > 100 µM (inactive) | GI50 (RXF 393): 76 µM (inactive) | GI50 (OVCAR-3): > 100 µM (inactive) | GI50 (UO-31): > 100 µM (inactive) | GI50 (NCI-H522): > 100 µM (inactive) | GI50 (OVCAR-5): > 100 µM (inactive) | GI50 (OVCAR-4): > 100 µM (inactive) | GI50 (NCI-H460): > 100 µM (inactive) | GI50 (KM12): > 100 µM (inactive) | GI50 (HCT-116): > 100 µM (inactive) | GI50 (CAKI-1): > 100 µM (inactive) | GI50 (OVCAR-8): > 100 µM (inactive)

CCOC(=O)C1=C(N)N(c2ccccc2)/C(=C(/C#N)c2nc3ccccc3[nH]2)S1
GI50 (HCT-15): > 100 µM | GI50 (K562): > 100 µM (inactive) | GI50 (SN12C): > 100 µM (inactive) | GI50 (UACC-257): > 100 µM (inactive) | GI50 (SW-620): > 100 µM (inactive) | GI50 (SK-MEL-28): > 100 µM (inactive) | GI50 (HOP-62): > 100 µM (inactive) | GI50 (RXF 393): > 100 µM (inactive) | GI50 (OVCAR-3): > 100 µM (inactive) | GI50 (UO-31): > 100 µM (inactive) | GI50 (NCI-H522): > 100 µM (inactive) | GI50 (OVCAR-5): > 100 µM (inactive) | GI50 (OVCAR-4): > 100 µM (inactive) | GI50 (NCI-H460): 43 µM (inactive) | GI50 (HCT-116): > 100 µM (inactive) | GI50 (CAKI-1): > 100 µM (inactive) | GI50 (OVCAR-8): > 100 µM (inactive)

CC(C)=CCCC(C)[C@H]1CC(O)C2(C)C3=CCC4C(C)(C)[C@@H](O)CC[C@]4(C)C3=CC[C@]12C (stereo partly specified)
GI50 (HCT-15): 5.01 µM | GI50 (K562): 1.59 µM (inactive) | GI50 (SN12C): 3.14 µM (inactive) | GI50 (UACC-257): 22.5 µM (inactive) | GI50 (SW-620): 3.89 µM (inactive) | GI50 (HOP-62): 5.83 µM (inactive) | GI50 (RXF 393): 2.92 µM (inactive) | GI50 (OVCAR-3): 3.2 µM (inactive) | GI50 (UO-31): 14.3 µM (inactive) | GI50 (NCI-H522): 0.401 µM (active) | GI50 (OVCAR-5): 25 µM (inactive) | GI50 (OVCAR-4): 2.31 µM (inactive) | GI50 (NCI-H460): 2.24 µM (inactive) | GI50 (KM12): 4.36 µM (inactive) | GI50 (HCT-116): 2.4 µM (inactive) | GI50 (CAKI-1): 8.36 µM (inactive) | GI50 (OVCAR-8): 1.8 µM (inactive)

Source: ChEMBL document CHEMBL1201862, “PubChem BioAssay data set” (2004)
